# Reference: patent US7732398B2, “Medicinal uses of mu-opioid receptor agonists” (Cornell Research Foundation, Inc., priority 2000, dated 2010)
# “Also recorded” adds a separate entry of the source.
# Assays:
# [1] = In vivo pharmacokinetics in sheep; details: preliminary data, compared with DALDA and [Dmt1]DALDA
# Description: Five or more days were allowed for recovery from surgery prior to experimental studies.
# In vivo pharmacokinetic studies In order to avoid the rapid distribution phase associated with intravenous bolus administration, all three peptides were administered as constant rate intravenous infusions to sheep. […] DALDA (0.6 mg/kg/hr) and [Dmt^1]DALDA (0.06 mg/kg/hr) were, therefore, infused via the venous catheter for a period of 4 hr. […] The current limit of sensitivity of the analytical method prevented the use of an even lower dose of [Dmt^1]DALDA. Blood samples (5 ml) were collected from the arterial catheter at 0, 1, 2, 3, 3.5, 4, 4.25, 4.5, 5, 6 and 7 hr.
# Pharmacokinetic Analyses Plasma levels of DAMGO, DALDA and [Dmt^1]DALDA during and after the 4 h infusion were subjected to compartmental analysis using nonlinear regression (WINNONLIN). The derived pharmacokinetic constants were used to calculate the apparent volume of distribution at steady state (Vd), elimination half-life (t1/2) and clearance (CL).
# Male Sprague-Dawley rats = experiment: Rat tail-flick test, antinociceptive effects after intrathecal administration; format: in vivo; details: yohimbine 100 μg alone, intrathecal
# Description: Male Sprague-Dawley rats (300-350 g) were used.
# Under light halothane anesthesia a needle connected to a Hamilton syringe was inserted percutaneously between spinal processes of the third and fourth lumbar vertebrae into the intrathecal space. A quick flick of the tail was observed when the tip of the needle entered the intrathecal space and was used as an indicator of successful puncture (Mestre et al., 1994). Drugs were delivered in a volume of 5 μl.
# Intrathecal catheterization was performed at least two days prior to the experiment as previously described (Shimoyama et al., 1996). Briefly, under halothane anesthesia, a PE-10 tube was inserted through a small hole made in the atlanto-occipital membrane and threaded 8.5 cm down the intrathecal space to the lumbosacral level of the spinal cord. Drugs were delivered via the catheter in a volume of 5 μl, followed by 10 μl saline to flush the catheter.
# To assess the antinociceptive effects of the opioids, the tail-flick test was used. Radiant heat was applied to the tail at 5-8 cm from the tip using a tail-flick apparatus (IITC, Woodland Hills, Calif.). The time from the onset of the heat to the withdrawal of the tail (tail-flick latency) was measured. The intensity of the radiant heat was adjusted so that baseline latencies would fall between 2.5 and 3.5 seconds. To avoid tissue damage the heat stimulus was discontinued after seven seconds. A baseline latency was obtained for each animal prior to the administration of any drug. Subsequent response latencies were determined at designated time points. Analgesic testing was performed by a blinded investigator.
# Cumulative dose-response studies were performed for each drug using the tail-flick test (Shimoyama et al., 1996), (Shimoyama et al., 1997). Each drug was tested in a group of ten rats. After measuring the baseline latencies, increasing doses of each drug were administered via an intrathecal catheter until each animal in the group became an analgesic responder. An analgesic responder was defined as one whose response tail-flick latency was two or more times the value of the baseline latency. The response latency after each dosing was determined at peak analgesia, which was 15, 30 and 45 min after the administration of the MOR, DALDA and [Dmt^1]DALDA, respectively (based on preliminary studies). Any subsequent dosing was performed immediately after the determination of response latency. The percentage of analgesic responders in the group of rats for each cumulative dose was calculated, and a cumulative dose-response curve was constructed. The dose-response data were analyzed by the BLISS-21 computer program. This program maximized the log-likelihood function to fit a parallel set of gaussian normal sigmoid curves to the dose-response data and provides ED50 values, 95% confidence interval (CI) and relative potency estimates (Umans and Inturrisi, 1981).
# The effect of naloxone on the antinociceptive effects of intrathecal MOR, DALDA and [Dmt^1]DALDA was examined. An equipotent dose (3 times the ED50 value determined in Study 1) of MOR, DALDA or [Dmt^1]DALDA was given via an intrathecal catheter. Tail-flick latencies were measured prior to the administration of any drug and at the time of peak analgesia for each compound (at 15, 30 and 45 minutes after administration, for MOR, DALDA and [Dmt^1]DALDA, respectively). Naloxone hydrochloride at a dose of 82.5 nmol or saline was administered via the intrathecal catheter 10 minutes prior to the second tail-flick testing. Four rats were tested for each combination of drugs. Data were analyzed using the paired t-test.
# A dose 3 times the ED50 value of MOR, DALDA, or [Dmt^1]DALDA was administered intrathecally. Tail-flick latencies were measured prior to the administration of any drug (=baseline latency) and at the time of peak analgesia (=response latency). […]
SMILES,elimination in sheep [1],effect on tail-flick latency (Male Sprague-Dawley rats)
C[C@@H](NC(=O)[C@@H](N)Cc1ccc(O)cc1)C(=O)NCC(=O)N(C)[C@@H](Cc1ccccc1)C(=O)NCCO [DAMGO],much more rapid elimination,–
"COC(=O)[C@@H]1[C@H]2C[C@H]3c4[nH]c5ccccc5c4CCN3C[C@@H]2CC[C@@H]1O [Yohimbine, yohimbine, reference compound]",–,no effect; also recorded: not having any effect on tail-flick latency by itself
